Measurements: ChEMBL document CHEMBL1201862, “PubChem BioAssay data set” (2004)
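Tested at 5 concentrations; 48 h exposure; 96-well plates; endpoints linearly interpolated, else capped at highest concentration. At the GI50, growth is halved.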 Active and inactive are the calls of the source. Cut-off read from the data, not from the text of the source: active = GI50 up to about 1.1 µM and inactive = higher.

Assays:
Experiment in all cases: NCI anticancer screen, dose series, 48 h
ACHN = tested on: ACHN
SR = tested on: SR
MOLT-4 = tested on: MOLT-4
OVCAR-4 = tested on: OVCAR-4
A549 = tested on: A549
Hs-578T = tested on: Hs-578T
HCT-116 = tested on: HCT-116
NCI-H460 = tested on: NCI-H460
PC-3 = tested on: PC-3
OVCAR-3 = tested on: OVCAR-3
UACC-62 = tested on: UACC-62
SK-MEL-5 = tested on: SK-MEL-5
HCT-15 = tested on: HCT-15
IGROV-1 = tested on: IGROV-1
MDA-MB-435 = tested on: MDA-MB-435
A498 = tested on: A498
RXF 393 = tested on: RXF 393
K562 = tested on: K562
CCRF-CEM = tested on: CCRF-CEM
HL-60 = tested on: HL-60

`O=[N+]([O-])c1ccc2[nH]c(-c3ccc(Cl)cc3)nc2c1` was tested, and the GI50 (ACHN) was 26.8 µM (inactive), the GI50 (SR) was 26.3 µM (inactive) and the GI50 (MOLT-4) was 25.4 µM (inactive). For the same compound, the GI50 (OVCAR-4) was 32.7 µM (inactive), the GI50 (A549) was 20.8 µM (inactive) and the GI50 (Hs-578T) was 25.5 µM (inactive). The GI50 (HCT-116) was 17.3 µM (inactive), the GI50 (NCI-H460) was 19.5 µM (inactive) and the GI50 (PC-3) was 21.4 µM (inactive). For the same compound, the GI50 (OVCAR-3) was 30.8 µM (inactive), the GI50 (UACC-62) was 21.2 µM (inactive) and the GI50 (SK-MEL-5) was 16.1 µM (inactive). For the same compound, the GI50 (HCT-15) was 14.9 µM, the GI50 (IGROV-1) was 31 µM (inactive) and the GI50 (MDA-MB-435) was 23.6 µM (inactive).

For `C[C@H]1[C@H](C)N(Cc2ccccc2)P(=O)(C(O)/C=C/c2ccccc2)N1Cc1ccccc1` (some centres undefined), the GI50 (ACHN) was 8.47 µM (inactive), the GI50 (SR) was 6.55 µM (inactive) and the GI50 (MOLT-4) was 8.73 µM (inactive). The GI50 (OVCAR-4) was 5.04 µM (inactive), the GI50 (A549) was 8.07 µM (inactive) and the GI50 (Hs-578T) was 4.79 µM (inactive). The GI50 (HCT-116) was 5.21 µM (inactive), the GI50 (A498) was 5.45 µM (inactive) and the GI50 (NCI-H460) was 3.72 µM (inactive). The GI50 (PC-3) was 5.37 µM (inactive), the GI50 (UACC-62) was 4.18 µM (inactive) and the GI50 (SK-MEL-5) was 4.55 µM (inactive). The GI50 (HCT-15) was 9.29 µM, the GI50 (IGROV-1) was 8.32 µM (inactive) and the GI50 (RXF 393) was 6.24 µM (inactive). The GI50 (K562) was 7.74 µM (inactive) and the GI50 (MDA-MB-435) was 4.33 µM (inactive).

With `COC(=O)c1ccccc1C1CN=NC12Cc1c(ccc3c1CCC3)C2=O` (centres undefined) the GI50 (ACHN) was 72.4 µM (inactive), the GI50 (SR) was 46.2 µM (inactive) and the GI50 (MOLT-4) was 30.5 µM (inactive). The GI50 (OVCAR-4) was 45.2 µM (inactive), the GI50 (A549) was > 100 µM (inactive) and the GI50 (Hs-578T) was 71.8 µM (inactive). The GI50 (HCT-116) was 43.2 µM (inactive), the GI50 (NCI-H460) was > 100 µM (inactive) and the GI50 (PC-3) was 43.8 µM (inactive). The GI50 (CCRF-CEM) was 49.5 µM (inactive), the GI50 (OVCAR-3) was 96.2 µM (inactive) and the GI50 (UACC-62) was 55.1 µM (inactive). The GI50 (SK-MEL-5) was 25.4 µM (inactive), the GI50 (HCT-15) was 41.5 µM and the GI50 (IGROV-1) was 88.7 µM (inactive). The GI50 (HL-60) was 23.4 µM (inactive), the GI50 (RXF 393) was 48.6 µM (inactive) and the GI50 (K562) was 39.1 µM (inactive). The GI50 (MDA-MB-435) was 23.9 µM (inactive).

In the case of `COc1ccc(CCCCNCc2cccc(CNCCCCc3ccc(OC)cc3)c2)cc1`, the GI50 (ACHN) is reported as 1.83 µM (inactive), the GI50 (SR) is reported as 1.79 µM (inactive) and the GI50 (MOLT-4) is reported as 2.18 µM (inactive). For the same compound, the GI50 (OVCAR-4) was 2.03 µM (inactive), the GI50 (A549) was 2.15 µM (inactive) and the GI50 (Hs-578T) was 1.69 µM (inactive). For the same compound, the GI50 (HCT-116) was 1.94 µM (inactive), the GI50 (NCI-H460) was 2.39 µM (inactive) and the GI50 (PC-3) was 1.79 µM (inactive). The GI50 (CCRF-CEM) was 1.67 µM (inactive), the GI50 (OVCAR-3) was 1.88 µM (inactive) and the GI50 (UACC-62) was 1.85 µM (inactive). For the same compound, the GI50 (SK-MEL-5) was 1.66 µM (inactive), the GI50 (HCT-15) was 1.77 µM and the GI50 (IGROV-1) was 1.74 µM (inactive). The GI50 (HL-60) was 1.77 µM (inactive), the GI50 (RXF 393) was 1.64 µM (inactive) and the GI50 (K562) was 1.36 µM (inactive). For the same compound, the GI50 (MDA-MB-435) was 1.79 µM (inactive).

For `O=C(O)CC1NC(/C(=C/c2ccccc2)NC(=O)c2ccccc2)OC1=O` (centres undefined), the GI50 (ACHN) was > 100 µM (inactive), the GI50 (MOLT-4) was 17.7 µM (inactive) and the GI50 (OVCAR-4) was 51.1 µM (inactive). For the same compound, the GI50 (A549) was 84.5 µM (inactive), the GI50 (Hs-578T) was 44.8 µM (inactive) and the GI50 (HCT-116) was 18.5 µM (inactive). For the same compound, the GI50 (A498) was > 100 µM (inactive), the GI50 (NCI-H460) was 22.2 µM (inactive) and the GI50 (PC-3) was > 100 µM (inactive). For the same compound, the GI50 (CCRF-CEM) was 22.6 µM (inactive), the GI50 (OVCAR-3) was 20.6 µM (inactive) and the GI50 (UACC-62) was 22.5 µM (inactive). The GI50 (SK-MEL-5) was 16.4 µM (inactive), the GI50 (HCT-15) was 31 µM and the GI50 (IGROV-1) was 25.1 µM (inactive). For the same compound, the GI50 (HL-60) was 11.6 µM (inactive), the GI50 (RXF 393) was 34.5 µM (inactive) and the GI50 (K562) was 21.3 µM (inactive). The GI50 (MDA-MB-435) was 24.6 µM (inactive).

In the case of `CC(=O)N1C(Nc2ccccc2)CCN1c1ccccc1` (centres undefined), the GI50 (ACHN) is reported as 4.22 µM (inactive), the GI50 (SR) is reported as > 10 µM (inactive) and the GI50 (MOLT-4) is reported as 9.77 µM (inactive). For the same compound, the GI50 (OVCAR-4) was > 10 µM (inactive), the GI50 (A549) was > 10 µM (inactive) and the GI50 (Hs-578T) was > 10 µM (inactive). For the same compound, the GI50 (HCT-116) was > 10 µM (inactive), the GI50 (NCI-H460) was > 10 µM (inactive) and the GI50 (PC-3) was 4.01 µM (inactive). The GI50 (CCRF-CEM) was > 10 µM (inactive), the GI50 (OVCAR-3) was > 10 µM (inactive) and the GI50 (SK-MEL-5) was > 10 µM (inactive). The GI50 (HCT-15) was 3.66 µM, the GI50 (IGROV-1) was > 10 µM (inactive) and the GI50 (HL-60) was 5.08 µM (inactive). The GI50 (RXF 393) was > 10 µM (inactive), the GI50 (K562) was 4.04 µM (inactive) and the GI50 (MDA-MB-435) was 3.68 µM (inactive).

In the case of `Cn1c(=O)c2c(nc(NCCCCl)n2CC(=O)NCCCCl)n(C)c1=O`, the GI50 (ACHN) is reported as > 100 µM (inactive), the GI50 (MOLT-4) is reported as > 100 µM (inactive) and the GI50 (OVCAR-4) is reported as > 100 µM (inactive). For the same compound, the GI50 (A549) was > 100 µM (inactive), the GI50 (Hs-578T) was > 100 µM (inactive) and the GI50 (HCT-116) was > 100 µM (inactive). The GI50 (A498) was > 100 µM (inactive), the GI50 (NCI-H460) was > 100 µM (inactive) and the GI50 (PC-3) was > 100 µM (inactive). The GI50 (CCRF-CEM) was > 100 µM (inactive), the GI50 (OVCAR-3) was > 100 µM (inactive) and the GI50 (UACC-62) was > 100 µM (inactive). The GI50 (SK-MEL-5) was > 100 µM (inactive), the GI50 (HCT-15) was greater than 100 µM and the GI50 (IGROV-1) was > 100 µM (inactive). The GI50 (HL-60) was > 100 µM (inactive), the GI50 (RXF 393) was > 100 µM (inactive) and the GI50 (K562) was > 100 µM (inactive). The GI50 (MDA-MB-435) was > 100 µM (inactive).

For `CC(=O)OCC1OC(n2ncc(=O)[nH]c2=O)C(OC(C)=O)C1OC(C)=O` (centres undefined), the GI50 (ACHN) was 4.9 µM (inactive), the GI50 (SR) was 5.36 µM (inactive) and the GI50 (MOLT-4) was 1.32 µM (inactive). The GI50 (OVCAR-4) was > 100 µM (inactive), the GI50 (A549) was 8.97 µM (inactive) and the GI50 (Hs-578T) was 19.1 µM (inactive). For the same compound, the GI50 (HCT-116) was 1.07 µM (active), the GI50 (NCI-H460) was 1.17 µM (inactive) and the GI50 (PC-3) was 68.9 µM (inactive). For the same compound, the GI50 (CCRF-CEM) was 0.718 µM (active), the GI50 (OVCAR-3) was 65.9 µM (inactive) and the GI50 (UACC-62) was 23.2 µM (inactive). The GI50 (SK-MEL-5) was 19.3 µM (inactive), the GI50 (HCT-15) was 3.41 µM and the GI50 (IGROV-1) was 17.8 µM (inactive). For the same compound, the GI50 (RXF 393) was > 100 µM (inactive), the GI50 (K562) was 0.832 µM (active) and the GI50 (MDA-MB-435) was 32.4 µM (inactive).
